Columns and labels:
Plasmodium falciparum [1] = test: Antimalarial activity against Plasmodium falciparum 3D7 infected in ARh+ human erythrocytes at 1 uM after 42 to 48 hrs by Picogreen staining-based 96 well microplate assay; format: functional; settings: read-out: GI
Plasmodium falciparum [2] = test: Antimalarial activity against Plasmodium falciparum 3D7 infected in ARh+ human erythrocytes at 0.01 uM after 42 to 48 hrs by Picogreen staining-based 96 well microplate assay; format: functional; settings: read-out: GI
Plasmodium falciparum [3] = test: Antimalarial activity against Plasmodium falciparum 3D7 infected in ARh+ human erythrocytes at 0.1 uM after 42 to 48 hrs by Picogreen staining-based 96 well microplate assay; format: functional; settings: read-out: GI
Plasmodium falciparum [4] = test: Antimalarial activity against Plasmodium falciparum 3D7 infected in ARh+ human erythrocytes after 42 to 48 hrs by Picogreen staining-based 96 well microplate assay; format: functional, organism-based
Plasmodium falciparum [5] = test: Antimalarial activity against Plasmodium falciparum 3D7 infected in ARh+ human erythrocytes at 10 uM after 42 to 48 hrs by Picogreen staining-based 96 well microplate assay; format: functional; settings: read-out: GI

SMILES | inhibition of growth at 1 µM (Plasmodium falciparum [1]) [%] | inhibition of growth at 0.01 µM (Plasmodium falciparum [2]) [%] | inhibition of growth at 0.1 µM (Plasmodium falciparum [3]) [%] | IC50 (Plasmodium falciparum [4]) [µM] | inhibition of growth at 10 µM (Plasmodium falciparum [5]) [%]
Fc1ccc(Cn2c(NC3CCN(CCCc4ccccc4)CC3)nc3ccccc32)cc1 | 78 | 2 | 37 | 0.196 | 100
Fc1ccc(Cn2c(NC3CCN(Cc4ccccc4)CC3)nc3ccccc32)cc1 | 29 | 2 | 2 | 1.9 | 94
O=C(NCc1ccccc1)N1CCC(Nc2nc3ccccc3n2Cc2ccc(F)cc2)CC1 | 4 | 0 | 0 | > 10 | 25
COc1ccc(OC)c(S(=O)(=O)N2CCC(Nc3nc4ccccc4n3Cc3ccc(F)cc3)CC2)c1 | 8 | 5 | 4 | 6.85 | 61
O=C(N1CCOCC1)N1CCC(Nc2nc3ccccc3n2Cc2ccc(F)cc2)CC1 | 0 | 0 | 0 | > 10 | 26
O=S(=O)(c1ccc(Cl)cc1)N1CCC(Nc2nc3ccccc3n2Cc2ccc(F)cc2)CC1 | 6 | 4 | 1 | 3.96 | 83
O=C(c1ccc(F)cc1)N1CCC(Nc2nc3ccccc3n2Cc2ccc(F)cc2)CC1 | 6 | 0 | 0 | 10 | 51
CC(C)CN1CCC(Nc2nc3ccccc3n2Cc2ccc(F)cc2)CC1 | 60 | 0 | 0 | 0.829 | 90
CC(C)S(=O)(=O)N1CCC(Nc2nc3ccccc3n2Cc2ccc(F)cc2)CC1 | 1 | 2 | 3 | > 10 | 11
O=C(NCCc1ccccc1)N1CCC(Nc2nc3ccccc3n2Cc2ccc(F)cc2)CC1 | 15 | 8 | 1 | > 10 | 49
O=C(Nc1ccc2c(c1)CCC2)N1CCC(Nc2nc3ccccc3n2Cc2ccc(F)cc2)CC1 | 5 | 1 | 2 | 6.28 | 66
Cc1ccc(S(=O)(=O)N2CCC(Nc3nc4ccccc4n3Cc3ccc(F)cc3)CC2)cc1 | 10 | 8 | 7 | 8.29 | 55
O=C(c1ccc(C(F)(F)F)cc1)N1CCC(Nc2nc3ccccc3n2Cc2ccc(F)cc2)CC1 | 6 | 3 | 0 | 6.18 | 66
O=C(c1ccccc1)N1CCC(Nc2nc3ccccc3n2Cc2ccc(F)cc2)CC1 | 8 | 5 | 0 | > 10 | 18
Fc1ccc(Cn2c(NC3CCN(CC4CC4)CC3)nc3ccccc32)cc1 | 21 | 0 | 0 | 2.25 | 98
O=C(Nc1ccccc1)N1CCC(Nc2nc3ccccc3n2Cc2ccc(F)cc2)CC1 | 7 | 0 | 3 | > 10 | 35
O=C(Nc1ccc(F)cc1F)N1CCC(Nc2nc3ccccc3n2Cc2ccc(F)cc2)CC1 | 4 | 2 | 0 | > 10 | 39
O=C(c1ccc(Cl)cc1)N1CCC(Nc2nc3ccccc3n2Cc2ccc(F)cc2)CC1 | 5 | 4 | 3 | > 10 | 36
CC(C)(C)NC(=O)N1CCC(Nc2nc3ccccc3n2Cc2ccc(F)cc2)CC1 | 6 | 0 | 2 | > 10 | 43
Fc1ccc(Cn2c(NC3CCN(CC4CCCCC4)CC3)nc3ccccc32)cc1 | 48 | 0 | 14 | 0.857 | 100
COc1ccc(NC(=O)N2CCC(Nc3nc4ccccc4n3Cc3ccc(F)cc3)CC2)c(OC)c1 | 5 | 0 | 1 | 8.14 | 57
Fc1ccc(Cn2c(NC3CCN(C/C=C/c4ccccc4)CC3)nc3ccccc32)cc1 | 55 | 1 | 12 | 0.718 | 100
Fc1ccc(Cn2c(NC3CCN(CCc4ccccc4)CC3)nc3ccccc32)cc1 | 90 | 9 | 43 | 0.125 | 100
CN1CCC(Nc2nc3ccccc3n2Cc2ccc(F)cc2)CC1 | 2 | 0 | 0 | 3.09 | 100
